Source: patent US5731334A, “Method for treating cancer using taxoid onium salt prodrugs” (priority 1995, dated 1998)
pIC50: −log10 of the molar value.

Experiments:
[1] = test system: A-549 lung carcinoma cells; test: XTT dye binding cytotoxicity assay, A-549; format: cell-based; conditions: Homo sapiens, A549; A-549, lung carcinoma; 72 h; read-out: IC50
Method: (§1) All cell lines described herein were obtained from the ATCC and maintained in media formulations as recommended by the supplier. The cell lines were tested for mycoplasma contamination prior to incubation at 37° C. in 5% carbon dioxide. Normal human dermal fibroblasts, peripheral blood lymphoblasts and mammary epithelial cells were obtained from Clonogenic Cor., San Diego, Calif. and were maintained under the above incubation conditions in special media provided by the supplier.
(§2) Antiproliferative activities of the onium salts were determined using the XTT dye binding assay. Cells were harvested with trypsin/EDTA (Irvine Scientific), washed, resuspended in the appropriate medium, and counted in a hemocytometer using Trypan Blue to determine viability. Then 10^4 cells/well were added to 96 well microtiter plates and incubated for 24 hours before addition of drug at concentrations in the range of 10^-4 to 10^-13 molar by direct addition from DMSO solutions. After 72 hours, XTT binding dye was added and incubation was continued for 4 hours. The inhibition of cell proliferation was quantified using a Molecular Devices Microplate Reader. The absorbance of XTT was measured at […]. The concentration of drug which inhibited growth of cells by 50% was calculated from duplicated determinations.

[2] = test system: BT-549 breast carcinoma cells; test: XTT dye binding cytotoxicity assay, BT-549; format: cell-based; conditions: Homo sapiens; BT-549, breast carcinoma; 72 h; read-out: IC50
Method: as §1, §2

[3] = test system: RPMI-7666 blood lymphoblasts; test: XTT dye binding cytotoxicity assay, RPMI-7666; format: cell-based; conditions: Homo sapiens; RPMI-7666, blood lymphoblasts (untransformed); 72 h; read-out: IC50
Method: as §1, §2

[4] = test system: 786-0 renal cell carcinoma cells; test: XTT dye binding cytotoxicity assay, 786-0; format: cell-based; conditions: Homo sapiens; 786-0, renal cell carcinoma; 72 h; read-out: IC50
Method: as §1, §2

[5] = test system: SIHA squamous carcinoma cells; test: XTT dye binding cytotoxicity assay, SIHA; format: cell-based; conditions: Homo sapiens; SIHA, squamous carcinoma; 72 h; read-out: IC50
Method: as §1, §2

SK-Mel-28 melanoma cells = test: XTT dye binding cytotoxicity assay, SK-Mel-28; format: cell-based; conditions: Homo sapiens; SK-Mel-28, melanoma; 72 h; read-out: IC50
Method: as §1, §2

[6] = test system: HL-60 promyelocytic leukemia cells; test: XTT dye binding cytotoxicity assay, HL-60; format: cell-based; conditions: Homo sapiens; HL-60, promyelocytic leukemia; 72 h; read-out: IC50
Method: as §1, §2

U-2511 CNS cancer cells = test: XTT dye binding cytotoxicity assay, U-2511; format: cell-based; conditions: Homo sapiens; U-2511, CNS cancer; 72 h; read-out: IC50
Method: as §1, §2

[7] = Stability in water, assay medium and storage solution; format: physicochemical
From the text: used and differing ultraviolet absorption maxima between the prodrug and the drug, the stability was easily assayed using UV detection. In all the ensuing studies, the only degradation products detected were the taxoids and the pyridinone that results from the hydrolysis of the onium salts. In water, these compounds show surprising stability for up to weeks depending upon the storage conditions. […] The fraction of ethyl acetated extractable material was between 18 and 23% for all onium salts and 95% for the present compounds.
FIG. 2 illustrates the results of GTP induced polymerization and calcium chloride induced depolymerization of tubulin in the presence of taxol and the 2'- and 7-MPA substituted derivatives.

[8] = Plasma stability and prodrug reversion (ethyl acetate extraction, HPLC); conditions: human, plasma
NHDF dermal fibroblast = test: XTT dye binding cytotoxicity assay, NHDF; format: cell-based; conditions: Homo sapiens, dermal fibroblast (untransformed), 72 h, read-out: IC50
Method: as §1, §2

[9] = test system: UCLA-P3 lung carcinoma cells; test: XTT dye binding cytotoxicity assay, UCLA-P3; format: cell-based; conditions: Homo sapiens, UCLA P-3; UCLA-P3, lung carcinoma; 72 h; read-out: IC50
Method: as §1, §2

[10] = test system: CHO Chinese hamster ovary cells; test: XTT dye binding cytotoxicity assay, CHO; format: cell-based; conditions: Cricetulus griseus; CHO, Chinese hamster ovary (untransformed); 72 h; read-out: IC50
Method: as §1, §2

[11] = test system: SK-N-SH neuroblastoma cells; test: XTT dye binding cytotoxicity assay, SK-N-SH; format: cell-based; conditions: Homo sapiens, neuroblastoma, 72 h, read-out: IC50
Method: as §1, §2

L-1210 leukemia cells = test: XTT dye binding cytotoxicity assay, L-1210; format: cell-based, mouse; conditions: L1210; L-1210, mouse leukemia; 72 h; read-out: IC50
Method: as §1, §2

[12] = test system: Capan 1 pancreas cancer cells; test: XTT dye binding cytotoxicity assay, Capan 1; format: cell-based; conditions: Homo sapiens; Capan 1, pancreas cancer; 72 h; read-out: IC50
Method: as §1, §2

[13] = test system: HT-29 colon carcinoma cells; test: XTT dye binding cytotoxicity assay, HT-29; format: cell-based; conditions: Homo sapiens; HT-29, colon carcinoma; 72 h; read-out: IC50
Method: as §1, §2

[14] = Comparative toxicities (lethality) in mice
[15] = test system: OVCAR-3 ovarian carcinoma cells; test: XTT dye binding cytotoxicity assay, OVCAR-3; format: cell-based; conditions: Homo sapiens; OVCAR-3, ovarian carcinoma; 72 h; read-out: IC50
Method: as §1, §2

[16] = test system: HMEC mammary epithelial cells; test: XTT dye binding cytotoxicity assay, HMEC; format: cell-based; conditions: Homo sapiens, mammary epithelial cells (untransformed), 72 h, read-out: IC50
Method: as §1, §2

tubulin = test: Tubulin polymerization-depolymerization (microtubule assembly-disassembly) assay; format: biochemical, calf; conditions: CaCl2, 10^-6 M drug, 37° C., in words
[17] = test system: M-24 metastatic melanoma cells; test: XTT dye binding cytotoxicity assay, M-24; format: cell-based; conditions: Homo sapiens, M24; M-24, melanoma-metastatic; 72 h; read-out: IC50
Method: as §1, §2

[18] = Toxicity and survival in vivo (tumor bearing nude mice); conditions: for Toxicity: Table II, in vivo; for % survival: at end of experiments
tumor cell lines = test: Cytotoxicity, summary over tumor cell lines (XTT); format: cell-based, human and murine
Method: Antiproliferative activities of the onium salts were determined using the XTT dye binding assay. Cells were harvested with trypsin/EDTA (Irvine Scientific), washed, resuspended in the appropriate medium, and counted in a hemocytometer using Trypan Blue to determine viability. […] After 72 hours, XTT binding dye was added and incubation was continued for 4 hours. The inhibition of cell proliferation was quantified using a Molecular Devices Microplate Reader. […] The concentration of drug which inhibited growth of cells by 50% was calculated from duplicated determinations.

[19] = test system: PC-3 prostate carcinoma tumor xenograft; test: PC-3 prostate tumor xenograft in nude mice
Method: (§3) Athymic nude mice were purchased from Harlan-Sprague-Dawley. The animals were housed in microisolated cases under positive air pressure and all manipulations and drug treatments were performed in a laminar flow cabinet. Tumor cells were grown under the above tissue culture conditions. Cell suspensions in RPMI medium were injected S./C. Treatment was started one day after inoculation by i.p. injection of 400 μl drug solutions. Tumors were measured 3 times weekly in two dimensions, using calipers and tumor volume as calculated using the formula (V=w^2 ×L×(3.142).
The tumor model was generated from an ATTC PC-3 prostate carcinoma cell line that was maintained under standard cell proliferation conditions, viz. 37° C., 5% carbon dioxide in sterile air. Each cohort was comprised of eight randomly chosen female athymic nude mice, for a total population size of twenty four. Hemocytometer counted cells, suspended in Hanks mediun (Gibco, Grand Island N.Y.) were implanted S.C. (10^6 cells in 0.4 mL per mouse). Solid tumor growth was measured on each third day. Equimolar amounts of the test compounds (1.0 mM, 400 μL) were injected i.p. on days 1, 3, 5, 7, 9, and 11 using the following media:
(.smallcircle.): Control, 5% dextrose in 5× distilled water (5 DW)
(Δ): Taxol (18.0 mg/kg of animal weight or approximately 1.260 mg/m^2) suspended in Cremaphor/D5W
Inferences about efficacy were drawn by ANOVA followed by protected t-test. […] Data shown as mean value with standard error.

[20] = test system: Molt-4 T-cell leukemia cells; test: XTT dye binding cytotoxicity assay, Molt-4; format: cell-based; conditions: Homo sapiens; Molt-4, T-cell leukemia; 72 h; read-out: IC50
Method: as §1, §2

[21] = test system: PC-3 prostate carcinoma cells; test: XTT dye binding cytotoxicity assay, PC-3; format: cell-based; conditions: Homo sapiens, 72 h
Method: as §1, §2

human tumor xenografts = test: In vivo antitumor effect (human tumor xenografts in nude mice)
[22] = test system: A549 lung adenocarcinoma tumor xenograft; test: Human lung adenocarcinoma A549 xenograft in nude mice; conditions: 1.0 mM, 400 μL i.p. days 1, 3, 5, 7, 9, 11
Method: as §3
The tumor model was generated from A549 cell line, an ATTC that was maintained under standard cell proliferation conditions (37° C., 5% carbon dioxide in sterile air). Each cohort was comprised of six randomly chosen female athymic nude mice, for a total population size of twenty four mice. Hemocytometer counted cells, suspended in Hanks mediun (Gibco, Grand Island N.Y.) were implated S.C. (10^6 cells in 0.4 mL per mouse). Solid tumor growth was measured on each third day. Equimolar amounts of the test compounds (1.0 mM, 400 μL) were injected i.p. on days 1, 3, 5, 7, 9, and 11 using the following media:
(Δ): Control, saline in 5× distilled water (5 DW)
(.smallcircle.): Taxol (18.0 mg/kg of animal weight or approximately 1,260 mg/m^2) suspended in Cremaphor/D5W […]

in vitro = conditions: human, plasma

| Compound | pIC50 [1] | pIC50 [2] | pIC50 [3] | pIC50 [4] | pIC50 [5] | pIC50 (SK-Mel-28 melanoma cells) | pIC50 [6] | pIC50 (U-2511 CNS cancer cells) | half-life [8] [min] | recovery [8] [%] | pIC50 (NHDF dermal fibroblast) | pIC50 [9] | pIC50 [10] | pIC50 [11] | pIC50 (L-1210 leukemia cells) | pIC50 [12] | pIC50 [13] | pIC50 [15] | pIC50 [16] | inhibition of calcium chloride induced depolymerization of microtubules (tubulin) | other results |
| --- | --- | --- | --- | --- | --- | --- | --- | --- | --- | --- | --- | --- | --- | --- | --- | --- | --- | --- | --- | --- | --- |
| CC(=O)O[C@@]12CO[C@@H]1C[C@H](O)[C@@]1(C)C(=O)[C@H](O)C3=C(C)[C@@H](OC(=O)[C@H](Oc4cccc[n+]4C)[C@@H](NC(=O)OC(C)(C)C)c4ccccc4)C[C@@](O)([C@@H](OC(=O)c4ccccc4)[C@H]21)C3(C)C [Compound 6] | 9.14 | 10.19 | 6.22 | 9.25 | 8.39 | 7.17 | 9.05 | 9.21 | 0.9 | 18 | 8.80 | 7.70 | 6.53 | 8.13 | 10.72 | 9.23 | 8.51 | 7.09 | 7.25 |  | storage stability ([7]; 1-2% Tween #80 or Tween #20 with or without ethyl alcohol): stable and may stored without significant loss; Toxicity ([14]; mouse, in vivo): minimal toxicity; lethality ([14]; mouse, in vivo): no lethality |
| CC(=O)O[C@H]1C(=O)[C@@]2(C)[C@H]([C@H](OC(=O)c3ccsc3)[C@]3(O)C[C@H](OC(=O)[C@H](O)[C@@H](NC(=O)c4ccccc4)c4ccccc4)C(C)=C1C3(C)C)[C@]1(OC(C)=O)CO[C@@H]1C[C@@H]2O [C-2-substituted thiophene derivative] |  |  |  |  |  |  |  |  |  |  |  |  |  |  |  |  |  |  |  | inhibited depolymerization similar to taxol |  |
| CC(=O)O[C@H]1C(=O)[C@]2(C)[C@@H](Oc3cccc[n+]3C)C[C@H]3OC[C@@]3(OC(C)=O)[C@H]2[C@H](OC(=O)c2ccccc2)[C@]2(O)C[C@H](OC(=O)[C@H](O)[C@@H](NC(=O)c3ccccc3)c3ccccc3)C(C)=C1C2(C)C [Compound 3] | 7.37 | 6.85 | 6.91 | 6.34 | 8.06 | 6.15 | 8.23 | 6.77 | 180 | 20 | 7.07 | 7.89 | 6.21 | 7.71 | 6.75 | 7.46 | 7.45 | 7.07 | 7.09 | as effective as taxol in inhibiting calcium induced microtubule disassembly | pIC50 [17]: 9.21; Toxicity [18]: low; % survival [18]: 100%; cytotoxicity in words (tumor cell lines): cytotoxicities comparable to taxol on human tumor cell lines; antitumor activity, PC-3 ([19]; 1.0 mM, 400 μL i.p., established tumors): essentially no antitumor activity; mice surviving treatment, PC-3 ([19]; in vivo): all of the mice given either the 2'- or 7-isomers survived; stability under the assembly-disassembly conditions ([7]; HPLC analysis): completely stable; pIC50 [20]: 8.00; pIC50 [21]: 7.15; inhibition of calcium chloride induced depolymerization of microtubules (tubulin; listed as 7-MPA salt): essentially complete inhibition of depolymerization; inhibition of calcium chloride induced depolymerization of microtubules (tubulin; listed as taxol-7-MPA): suppressed by taxol and taxol-7-MPA; in vivo antitumor efficacy in words (human tumor xenografts): completely failed to inhibit the growth of these tumors in nude mice |
| CC(=O)O[C@@]12CO[C@@H]1C[C@H](O)[C@@]1(C)C(=O)[C@H](O)C3=C(C)[C@@H](OC(=O)[C@H](O)[C@@H](NC(=O)OC(C)(C)C)c4ccccc4)C[C@@](O)([C@@H](OC(=O)c4ccccc4)[C@H]21)C3(C)C [Compound 5, N-debenzoyl-N-tert-butoxycarbonyl-10-deacetyl Taxol, reference compound] | 9.10 |  | 7.15 | 7.38 | 8.81 | 6.21 | 10.46 | 7.68 |  |  | 7.19 | 9.92 | 7.10 | 9.19 | 9.23 | 10.96 | 9.08 | 9.96 | 7.48 |  | pIC50 [17]: 10.77; 50% lethality and toxicities, in words ([14]; conventional formulation, relative to taxol): 50% lethality and toxicities at generally lower dosages as compared to taxol |
| CC(=O)O[C@H]1C(=O)[C@@]2(C)[C@H]([C@H](OC(=O)c3ccccc3)[C@]3(O)C[C@H](OC(=O)[C@H](OC(=O)CS(=O)(=O)C(=O)O)[C@@H](NC(=O)c4ccccc4)c4ccccc4)C(C)=C1C3(C)C)[C@]1(OC(C)=O)CO[C@@H]1C[C@@H]2O [Compound 7] |  |  |  |  |  |  |  |  | 100 | 34 |  |  |  |  |  |  |  |  |  |  | Toxicity [18]: low; % survival [18]: 75%; cytotoxicity in words (tumor cell lines): high cytotoxicity profile; tumor growth inhibition, A549 [22]: no significant growth inhibition; in vivo antitumor efficacy in words (human tumor xenografts): completely fails to exhibit any antitumor effects in vivo |
| CC(=O)O[C@H]1C(=O)[C@@]2(C)[C@H]([C@H](OC(=O)c3ccsc3)[C@]3(O)C[C@H](OC(=O)[C@H](Oc4cccc[n+]4C)[C@@H](NC(=O)c4ccccc4)c4ccccc4)C(C)=C1C3(C)C)[C@]1(OC(C)=O)CO[C@@H]1C[C@@H]2O [Compound 4] | 8.63 | 9.96 | 6.39 | 7.94 | 8.12 | 6.96 | 9.92 | 7.50 |  |  | 6.18 | 8.73 | 6.09 | 8.38 | 8.92 | 9.46 | 9.00 | 9.07 | 6.66 | behaved in this assay similar to the C-2'-MPA isomer of taxol (2) | half-life (in vitro): 14 min; recovery (in vitro): 23%; pIC50 [17]: 9.27; Toxicity [18]: low; % survival [18]: 100%; pIC50 [20]: 10.18; pIC50 [21]: 8.94 |
